The target in the assay is T1, mouse TRPM3α2 (mTRPM3) ion channel (Mus musculus, UniProt J9SQF3).
T1 construct: expressed in transfected cells; host or cells: flip-in HEK293
In words: TRPM3 ion channel driven Ca2+ uptake, Fluo-4 AM assay, PS-stimulated (mTRPM3). The class given is cell-based. The note with it: TRPM3 overexpressing flip-in HEK293 cells stimulated with Pregnenolone sulfate (PS) 50 μM, activity ranges A, B, C. The method in brief: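 Flp-In HEK293 cells overexpressing mTRPM3α2 were added, in Ca²⁺-free Krebs, to wells already holding compound and 50 μM pregnenolone sulfate in Ca²⁺-containing Krebs. Fluo-4 AM fluorescence (ex 485/em 535 nm) was read immediately. Percent inhibition was computed from RFU relative to PS/vehicle wells and a positive-control inhibitor.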

Molecules are shown by their SMILES. pIC50: −log10 of the molar value. Some results are limits rather than exact numbers.

T1 sequence (J9SQF3 1-1709 isoform J9SQF3-12): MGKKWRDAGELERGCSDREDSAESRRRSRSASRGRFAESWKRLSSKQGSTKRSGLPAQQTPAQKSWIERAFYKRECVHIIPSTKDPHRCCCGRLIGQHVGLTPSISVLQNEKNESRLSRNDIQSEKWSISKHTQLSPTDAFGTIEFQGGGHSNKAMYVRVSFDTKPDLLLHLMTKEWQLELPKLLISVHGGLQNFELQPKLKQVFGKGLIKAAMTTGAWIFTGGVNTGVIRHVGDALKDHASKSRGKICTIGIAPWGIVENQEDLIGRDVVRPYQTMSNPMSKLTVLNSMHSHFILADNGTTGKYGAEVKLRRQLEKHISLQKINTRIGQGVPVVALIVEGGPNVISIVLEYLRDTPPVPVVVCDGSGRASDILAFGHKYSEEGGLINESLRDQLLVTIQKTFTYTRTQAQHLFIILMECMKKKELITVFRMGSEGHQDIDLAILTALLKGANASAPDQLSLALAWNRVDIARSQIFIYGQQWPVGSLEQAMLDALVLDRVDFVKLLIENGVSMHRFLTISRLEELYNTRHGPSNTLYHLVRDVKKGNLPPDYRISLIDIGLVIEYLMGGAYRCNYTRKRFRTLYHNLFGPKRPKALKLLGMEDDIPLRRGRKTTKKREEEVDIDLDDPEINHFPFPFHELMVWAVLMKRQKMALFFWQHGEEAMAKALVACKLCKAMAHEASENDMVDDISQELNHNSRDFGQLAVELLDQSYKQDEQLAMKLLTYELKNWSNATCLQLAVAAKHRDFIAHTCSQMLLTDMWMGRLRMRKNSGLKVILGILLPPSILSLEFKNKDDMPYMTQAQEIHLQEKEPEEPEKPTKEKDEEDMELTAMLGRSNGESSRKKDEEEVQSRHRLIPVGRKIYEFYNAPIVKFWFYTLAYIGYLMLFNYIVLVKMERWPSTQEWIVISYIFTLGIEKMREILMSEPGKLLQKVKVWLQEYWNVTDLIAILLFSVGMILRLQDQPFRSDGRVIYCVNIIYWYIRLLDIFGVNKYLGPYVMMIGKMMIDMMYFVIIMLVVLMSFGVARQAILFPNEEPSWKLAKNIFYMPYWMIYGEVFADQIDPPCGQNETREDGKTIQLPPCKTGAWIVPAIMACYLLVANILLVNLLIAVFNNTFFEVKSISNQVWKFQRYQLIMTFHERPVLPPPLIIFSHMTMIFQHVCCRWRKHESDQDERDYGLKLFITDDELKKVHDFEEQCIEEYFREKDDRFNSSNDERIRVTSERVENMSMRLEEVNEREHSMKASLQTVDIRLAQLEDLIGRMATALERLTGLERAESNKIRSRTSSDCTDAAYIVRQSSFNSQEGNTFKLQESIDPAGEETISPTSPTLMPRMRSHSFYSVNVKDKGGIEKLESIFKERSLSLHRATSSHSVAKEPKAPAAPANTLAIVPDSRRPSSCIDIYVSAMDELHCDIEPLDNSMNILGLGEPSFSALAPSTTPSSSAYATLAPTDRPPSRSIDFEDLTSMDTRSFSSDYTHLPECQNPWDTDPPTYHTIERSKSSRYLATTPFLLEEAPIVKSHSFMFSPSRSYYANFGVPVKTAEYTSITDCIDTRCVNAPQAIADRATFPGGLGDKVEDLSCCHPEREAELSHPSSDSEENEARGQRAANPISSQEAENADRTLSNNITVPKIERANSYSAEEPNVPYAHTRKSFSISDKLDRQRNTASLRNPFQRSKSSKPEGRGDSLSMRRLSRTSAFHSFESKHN

Consider `CN1CCC(NC(=O)c2c(C3CCCC3)oc3ccc(OCc4ccccc4)cc23)CC1` [Cpd 221, 5-(benzyloxy)-2-cyclopentyl-N-(1-methylpiperidin-4-yl)benzofuran-3-carboxamide], for which the negative-log IC50 (pIC50) was < 4.70. The value for `Cc1oc2ccc(OCc3ccccc3F)cc2c1C(=O)NC1(C(N)=O)CCC1` [Cpd 322, N-(1-carbamoylcyclobutyl)-5-((2-fluorobenzyl)oxy)-2-methylbenzofuran-3-carboxamide] was > 6.00. Turning to `Cc1oc2ccc(OCc3ccccc3)cc2c1C(=O)N[C@@H]1C[C@H]2CCC[C@@H](C1)N2` [Cpd 184, 5-(benzyloxy)-N-((1R,3s,5S)-9-azabicyclo[3.3.1]nonan-3-yl)-2-methylbenzofuran-3-carboxamide], the pIC50 is > 6.00. With `Cc1oc2ccc(OCc3ccccc3)cc2c1C(=O)NC1CCNC(=O)C1` (stereo not shown) [Cpd 108, 5-(benzyloxy)-2-methyl-N-(2-oxopiperidin-4-yl)benzofuran-3-carboxamide] the figure was 4.70 to 6.00; with `COCCNC(=O)c1c(C)oc2ccc(OCc3ccccc3)cc12` [Cpd 044, 5-(benzyloxy)-N-(2-methoxyethyl)-2-methylbenzofuran-3-carboxamide], 4.70 to 6.00; with `Cc1oc2ccc(OCc3ccc(F)cc3)cc2c1C(=O)O` [Cpd 009, 5-((4-fluorobenzyl)oxy)-2-methylbenzofuran-3-carboxylic acid], 4.70 to 6.00.

With `Cc1oc2ccc(OCc3ccccc3F)cc2c1C(=O)NC1CCN(CCO)C1=O` (single isomer, unassigned) [Cpd 311-En 1, 5-((2-Fluorobenzyl)oxy)-N-(1-(2-hydroxyethyl)-2-oxopyrrolidin-3-yl)-2-methylbenzofuran-3-carboxamide], the pIC50 is > 6.00. In the case of `Cc1oc2ccc(OCc3cccc(F)c3)cc2c1C(=O)NCC1CCCO1` (stereo not shown) [Cpd 132, 5-((3-fluorobenzyl)oxy)-2-methyl-N-((tetrahydrofuran-2-yl)methyl)benzofuran-3-carboxamide], the pIC50 is > 6.00.

The molecule `Cc1oc2ccc(OCc3ccccc3)cc2c1C(=O)N(C)C1CCN(C)CC1` [Cpd 156, 5-(benzyloxy)-N,2-dimethyl-N-(1-methylpiperidin-4-yl)benzofuran-3-carboxamide] had a pIC50 of 4.70 to 6.00. `Cc1oc2ccc(OCc3ccccc3)cc2c1C(=O)NC1CN(C(=O)OC(C)(C)C)C1` [Cpd 228, tert-butyl 3-(5-(benzyloxy)-2-methylbenzofuran-3-carboxamido)azetidine-1-carboxylate]: the pIC50 was 4.70 to 6.00. `Cc1oc2ccc(OCc3ccccc3Cl)cc2c1C(=O)N[C@@H](CO)C(N)=O` [Cpd 338, (S)—N-(1-Amino-3-hydroxy-1-oxopropan-2-yl)-5-((2-chlorobenzyl)oxy)-2-methylbenzofuran-3-carboxamide]: the pIC50 is > 6.00. The value for `Cc1oc2ccc(OCc3ccccc3)cc2c1C(=O)N[C@H]1CCNC1=O` [Cpd 069, (S)-5-(benzyloxy)-2-methyl-N-(2-oxopyrrolidin-3-yl)benzofuran-3-carboxamide] was > 6.00; that for `Cc1oc2c(C)cc(OCc3ccccc3)cc2c1C(=O)NC1CNCC1(F)F` (single isomer, unassigned) [Cpd 307-En 2, 5-(benzyloxy)-N-(4,4-difluoropyrrolidin-3-yl)-2,7-dimethylbenzofuran-3-carboxamide] was < 4.70.

Take `Cc1oc2ccc(OCc3c(F)cccc3Cl)cc2c1C(=O)O` [Cpd 021, 5-((2-chloro-6-fluorobenzyl)oxy)-2-methylbenzofuran-3-carboxylic acid]: the negative-log IC50 (pIC50) was 4.70 to 6.00. With `Cc1oc2ccc(OCc3ccccc3)cc2c1C(=O)NC1CN(C2COC2)C1` [Cpd 148, 5-(benzyloxy)-2-methyl-N-(1-(oxetan-3-yl)azetidin-3-yl)benzofuran-3-carboxamide] the figure was > 6.00. With `Cc1oc2ccc(OCc3ccccc3)cc2c1C(=O)N[C@@H]1CN[C@H](CO)C1` [Cpd 126, 5-(benzyloxy)-N-((3S,5S)-5-(hydroxymethyl)pyrrolidin-3-yl)-2-methylbenzofuran-3-carboxamide], the pIC50 is > 6.00. With `Cc1oc2ccc(OCc3ccccc3)cc2c1C(=O)NC1CCNCC1(F)F` (stereo not shown) [Cpd 173, 5-(benzyloxy)-N-(3,3-difluoropiperidin-4-yl)-2-methylbenzofuran-3-carboxamide] the figure was > 6.00; with `Cc1oc2ccc(OCc3ccccc3)c(C#N)c2c1C(=O)NC1CNCC1(F)F` (single isomer, unassigned) [Cpd 297-En 1, 5-(benzyloxy)-4-cyano-N-(4,4-difluoropyrrolidin-3-yl)-2-methylbenzofuran-3-carboxamide], > 6.00.

Consider `Cc1oc2ccc(OCc3ccccc3)cc2c1C(=O)N[C@H]1CCN(S(C)(=O)=O)C1` [Cpd 215, (S)-5-(benzyloxy)-2-methyl-N-(1-(methylsulfonyl)pyrrolidin-3-yl)benzofuran-3-carboxamide], for which the pIC50 was > 6.00. With `Cc1ccc(COc2ccc3oc(C)c(C(=O)NC4CCN(C)CC4)c3c2)cc1` [Cpd 154, 2-methyl-5-((4-methylbenzyl)oxy)-N-(1-methylpiperidin-4-yl)benzofuran-3-carboxamide] the figure was 4.70 to 6.00; with `Cc1oc2ccc(OCc3ccccc3)c(C#N)c2c1C(=O)NC1CNCC1(F)F` (single isomer, unassigned) [Cpd 297-En 2, 5-(benzyloxy)-4-cyano-N-(4,4-difluoropyrrolidin-3-yl)-2-methylbenzofuran-3-carboxamide], 4.70 to 6.00.

`Cc1oc2ccc(OCc3ccccc3)cc2c1C(=O)NC1CCNC(C)C1` (racemic) [Cpd 114, rac-5-(benzyloxy)-2-methyl-N-(trans-2-methylpiperidin-4-yl)benzofuran-3-carboxamide]: the pIC50 was > 6.00. In the case of `Cc1oc2ccc(OCc3ccccc3)cc2c1C(=O)Nc1cccnc1` [Cpd 059, 5-(benzyloxy)-2-methyl-N-(pyridin-3-yl)benzofuran-3-carboxamide], the negative-log IC50 (pIC50) is > 6.00. With `Cc1oc2ccc(OCc3ccccc3)cc2c1C(=O)N[C@H]1C[C@H]2CC[C@@H](C1)N2C` [Cpd 183, 5-(benzyloxy)-2-methyl-N-((1R,3r,5S)-8-methyl-8-azabicyclo[3.2.1]octan-3-yl)benzofuran-3-carboxamide] the figure was > 6.00. Turning to `Cc1oc2ccc(OCc3ccccc3F)cc2c1C(=O)NC1CCNCC1(F)F` (stereo not shown) [Cpd 201, N-(3,3-difluoropiperidin-4-yl)-5-((2-fluorobenzyl)oxy)-2-methylbenzofuran-3-carboxamide], the pIC50 is > 6.00. Take `Cc1ccc(COc2ccc3oc(C)c(C(=O)NS(=O)(=O)C4CC4)c3c2)cc1` [Cpd 169, N-(cyclopropylsulfonyl)-2-methyl-5-((4-methylbenzyl)oxy)benzofuran-3-carboxamide]: the pIC50 is 4.70 to 6.00. The value for `Cc1oc2ccc(OCc3ccccc3)cc2c1C(=O)N[C@@H]1CN[C@@H](C(=O)O)C1` [Cpd 163, (2R,4S)-4-(5-(benzyloxy)-2-methylbenzofuran-3-carboxamido)pyrrolidine-2-carboxylic acid] was 4.70 to 6.00. With `Cc1oc2c(F)cc(OCc3ccccc3)cc2c1C(=O)NC1CNCC1(F)F` (single isomer, unassigned) [Cpd 306-En 2] the figure was 4.70 to 6.00.

The record behind these values is US20230391739A1, “ARYL DERIVATIVES FOR TREATING TRPM3 MEDIATED DISORDERS” (Katholieke Universiteit Leuven, priority 2020, published 2023).
